Source: patent publication US8168656B2, “Indoleacetic acid and indenacetic acid derivatives as therapeutic agents with reduced gastrointestinal toxicity” (Vanderbilt University, priority 2009, dated 2012)
Substitutions are numbered along the chain they refer to.

Experiments:
mCOX-2^V349A = molecular target: T1, mCOX-2^V349A (Mus musculus, UniProt Q05769, V335A); experiment: Time-dependent IC50 COX inhibition assay; assay type: biochemical, murine
T1 construct: made in house; host or cells: Sf9 insect cells (baculovirus, pVL1393)
T1 sequence (Q05769 18-604 V335A): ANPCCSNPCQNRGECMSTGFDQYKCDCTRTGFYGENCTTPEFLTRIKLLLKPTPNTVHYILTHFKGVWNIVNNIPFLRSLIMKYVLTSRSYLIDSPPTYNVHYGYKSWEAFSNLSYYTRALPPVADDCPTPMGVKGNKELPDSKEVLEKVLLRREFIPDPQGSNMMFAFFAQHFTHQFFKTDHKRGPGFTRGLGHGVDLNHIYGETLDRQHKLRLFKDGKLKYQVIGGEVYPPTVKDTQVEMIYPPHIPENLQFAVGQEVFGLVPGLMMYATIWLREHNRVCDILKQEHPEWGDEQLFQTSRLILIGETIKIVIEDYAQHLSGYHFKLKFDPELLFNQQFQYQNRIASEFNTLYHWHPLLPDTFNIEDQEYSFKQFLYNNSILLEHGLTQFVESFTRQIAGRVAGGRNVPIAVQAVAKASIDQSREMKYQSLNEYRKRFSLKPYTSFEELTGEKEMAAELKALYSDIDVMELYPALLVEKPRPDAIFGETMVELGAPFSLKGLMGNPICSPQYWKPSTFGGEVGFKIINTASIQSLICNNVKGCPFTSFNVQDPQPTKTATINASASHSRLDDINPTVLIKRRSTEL
Experimental: These mutated genes were used to assemble baculoviral constructs for large-scale expression in Sf9 cells. Purification of the expressed COX-2 protein was performed through traditional cellular fractionation and classical column chromatography. Activity or inhibition assays were performed in 100 mM Tris-HCl buffer containing 500 μM phenol, with hematin-reconstituted protein. Quantification of cyclooxygenase activity was performed by monitoring substrate (arachidonate or oxygen) consumption in a thermostatted cuvette at 37° C. using a polarographic electrode with a 5300 oxygen monitor (Yellow Springs Instrument Co. Inc., Yellow Springs, Ohio, United States of America). All inhibitors and substrates were solubilized in dimethyl sulfoxide (DMSO). Activity or inhibition assays were performed in 100 mM Tris-HCl buffer containing 500 μM phenol, with hematin-reconstituted protein. Maximal reaction velocity data were obtained from the linear portion of the oxygen uptake curves, and the data were analyzed by nonlinear regression with Prism 4.0 (GraphPad Software, San Diego, Calif., United States of America).
Time-dependent inhibition reactions were performed by pre-incubating the inhibitor and enzyme for 17 minutes at 25° C., followed by 3 minutes at 37° C. prior to the addition of 50 μM [1-^14C]-AA for 30 seconds at 37° C. Assays were terminated and analyzed for substrate consumption by thin layer chromatography as previously described (Kalgutkar et al., 2000a).
Maximal reaction velocity data were obtained from the linear portion of the oxygen uptake curves, and the data were analyzed by nonlinear regression. Instantaneous inhibition assays were performed with substrate and inhibitor added prior the initiation of the reaction by addition of protein. Time-dependent screening assays were performed by pre-incubating the inhibitor and enzyme for 17 minutes at 25° C., followed by 3 minutes at 37° C. prior to the addition of 50 μM [1-^14C]-arachidonic acid (AA) for 30 seconds at 37° C.
Assays were terminated and analyzed for substrate consumption by thin layer chromatography. […] Time-dependent COX inhibition reactions were pre-incubated at 37° C. for varying lengths of time (0-30 minutes) with various concentrations of inhibitor. All reactions were performed with [1-^14C]-AA for 30 seconds at 37° C.; reactions were terminated and analyzed as described above.
The COX reaction was allowed to proceed for 30 seconds before termination.

wild type mCOX-2 = molecular target: T2, wild type mCOX-2 (Mus musculus, UniProt Q05769); experiment: Steady-state quenching of COX intrinsic fluorescence (apo-protein); assay type: binding, murine
T2 construct: made in house; host or cells: Sf9 insect cells (baculovirus, pVL1393)
T2 sequence (Q05769 18-604): T1 sequence (Q05769 18-604 V335A) with A318V
Experimental: Steady-state measurements were performed at 37° C. in a 3.5 ml fluorescence cuvette with continuous stirring. […] Data were collected over 240 or 360 seconds with 2-second integration times. The reversibility of quenching was analyzed in the same manner, with subsequent addition of 50 μM AA as competitor. The ligands were dissolved in DMSO before further dilution into buffer. The organic component in the buffer was below 0.4%.
This assay provided a method to directly monitor the binding of INDO and DM-INDO to COXs. Various concentrations of INDO and DM-INDO were added to apo-proteins and the rate of fluorescence decrease was monitored over time. After the mixture reached equilibrium, 50 μM of AA was added as competitor to monitor the reversibility of binding. The kinetic data for quenching were analyzed in the same manner as those for inhibition. For clarity, the equilibrium constant for the first step of fluorescence quenching is referred to as Kd, and k2 and k−2 from the second step of quenching are represented by k′2 and k′−2, respectively.

COc1ccc2c(c1)c(CC(=O)O)cn2C(=O)c1ccc(Cl)cc1 [DM-INDO, 2-Des-methylindomethacin]
inhibition in the time-dependent IC50 assay (mCOX-2^V349A): less than 20%
IC50 (mCOX-2^V349A; 20 min pre-incubation, then 50 μM AA for 30 s): > 16 µM
k′−2^b (wild type mCOX-2; fluorescence increase from competition with 50 μM AA): 0.007 ± 0.001 s⁻¹
Kd (wild type mCOX-2; fluorescence quenching): 16 ± 9 µM
k′2 (wild type mCOX-2; fluorescence quenching): 0.16 ± 0.04 s⁻¹
k′−2 (wild type mCOX-2; fluorescence quenching (decay)): 0.006 ± 0.002 s⁻¹
